Reference: PubChem BioAssay (NCI)
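Step 1: Grow cells in 96-well plates. Step 2: Expose to compound for 48 hours at 5 concentrations. Step 3: Interpolate endpoints linearly; if unreached, use highest concentration. TGI marks complete inhibition of growth.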

What was measured:
Experiment in all cases: inhibition of tumour cell growth, NCI panel, 48 h
HT29 colon = tested on: HT29 colon
OVCAR-3 ovarian = tested on: OVCAR-3 ovarian
SK-MEL-5 melanoma = tested on: SK-MEL-5 melanoma
SK-MEL-2 melanoma = tested on: SK-MEL-2 melanoma
UACC-62 melanoma = tested on: UACC-62 melanoma
IGROV1 ovarian = tested on: IGROV1 ovarian
RPMI-8226 leukemia = tested on: RPMI-8226 leukemia
HOP-18 NSCLC = tested on: HOP-18 NSCLC
SF-539 CNS = tested on: SF-539 CNS
HOP-62 NSCLC = tested on: HOP-62 NSCLC
SR leukemia = tested on: SR leukemia
KM20L2 colon = tested on: KM20L2 colon
U251 CNS = tested on: U251 CNS
NCI-H23 lung = tested on: NCI-H23 lung
ACHN renal = tested on: ACHN renal
SN12C renal = tested on: SN12C renal
MALME-3M melanoma = tested on: MALME-3M melanoma
MOLT-4 leukemia = tested on: MOLT-4 leukemia
OVCAR-8 ovarian = tested on: OVCAR-8 ovarian
OVCAR-5 ovarian = tested on: OVCAR-5 ovarian
SF-295 CNS = tested on: SF-295 CNS
SK-MEL-28 melanoma = tested on: SK-MEL-28 melanoma
CAKI-1 renal = tested on: CAKI-1 renal
NCI-H522 lung = tested on: NCI-H522 lung
COLO 205 colon = tested on: COLO 205 colon
786-0 renal = tested on: 786-0 renal
HOP-92 NSCLC = tested on: HOP-92 NSCLC
HCT-116 colon = tested on: HCT-116 colon
SW-620 colon = tested on: SW-620 colon
HCT-15 colon = tested on: HCT-15 colon
NCI-H460 lung = tested on: NCI-H460 lung
KM12 colon = tested on: KM12 colon
DLD-1 colon = tested on: DLD-1 colon
HL-60(TB) leukemia = tested on: HL-60(TB) leukemia
HCC-2998 colon = tested on: HCC-2998 colon
K-562 leukemia = tested on: K-562 leukemia
UACC-257 melanoma = tested on: UACC-257 melanoma
EKVX NSCLC = tested on: EKVX NSCLC
CCRF-CEM leukemia = tested on: CCRF-CEM leukemia
RXF 393 renal = tested on: RXF 393 renal
NCI-H226 lung = tested on: NCI-H226 lung
SF-268 CNS = tested on: SF-268 CNS
DMS 273 small cell lung = tested on: DMS 273 small cell lung
DMS 114 small cell lung = tested on: DMS 114 small cell lung
SK-OV-3 ovarian = tested on: SK-OV-3 ovarian
TK-10 renal = tested on: TK-10 renal
SNB-19 CNS = tested on: SNB-19 CNS
LOX IMVI melanoma = tested on: LOX IMVI melanoma
LXFL 529 NSCLC = tested on: LXFL 529 NSCLC
A549 NSCLC = tested on: A549 NSCLC
M19-MEL melanoma = tested on: M19-MEL melanoma
M14 melanoma = tested on: M14 melanoma
XF 498 CNS = tested on: XF 498 CNS
UO-31 renal = tested on: UO-31 renal
SNB-78 CNS = tested on: SNB-78 CNS
SNB-75 CNS = tested on: SNB-75 CNS
OVCAR-4 ovarian = tested on: OVCAR-4 ovarian
RXF-631 renal = tested on: RXF-631 renal
A498 renal = tested on: A498 renal

Measured: TGI

Cc1nc2sccn2c1C(=O)NNC(N)=S
not listed: M19-MEL melanoma | M14 melanoma | XF 498 CNS | UO-31 renal | SNB-78 CNS | SNB-75 CNS | OVCAR-4 ovarian | RXF-631 renal | A498 renal
> 100 µM: all other assays above

NC1CCC2(O)c3ccccc3C2C1 (stereo unspecified)
not listed: OVCAR-3 ovarian | IGROV1 ovarian | SF-539 CNS | OVCAR-5 ovarian | CAKI-1 renal | HOP-92 NSCLC | DLD-1 colon | HCC-2998 colon | RXF-631 renal | A498 renal
> 100 µM: all other assays above

Cc1cccc(C)c1NC(=O)CCCC(=O)C(C#N)c1ccccc1 (stereo unspecified)
not listed: HT29 colon | OVCAR-3 ovarian | UACC-62 melanoma | HOP-18 NSCLC | SF-539 CNS | HOP-62 NSCLC | KM20L2 colon | U251 CNS | SN12C renal | MALME-3M melanoma | OVCAR-8 ovarian | OVCAR-5 ovarian | SF-295 CNS | 786-0 renal | HCT-15 colon | NCI-H460 lung | KM12 colon | HCC-2998 colon | EKVX NSCLC | SF-268 CNS | DMS 273 small cell lung | DMS 114 small cell lung | TK-10 renal | SNB-19 CNS | LOX IMVI melanoma | A549 NSCLC | XF 498 CNS | A498 renal
> 100 µM: all other assays above

CC(C)c1ccc(Cc2ccc(C(C)C)c(NC(=O)C(=O)Cc3cnc4ccccc4n3)c2C(C)C)c(C(C)C)c1NC(=O)C(=O)Cc1cnc2ccccc2n1
91.8 µM: HOP-92 NSCLC
not listed: HT29 colon | HOP-18 NSCLC | SR leukemia | NCI-H23 lung | SN12C renal | SK-MEL-28 melanoma | NCI-H522 lung | RXF 393 renal | NCI-H226 lung | SF-268 CNS | DMS 273 small cell lung | XF 498 CNS | SNB-75 CNS
> 100 µM: all other assays above
